Values after ≈ are worked out from the molar mass of the structure shown.
What was measured:
[1] = tested on: Staphylococcus aureus; assay: Antibacterial activity against Staphylococcus aureus 1118 infected in sc and iv dosed mouse assessed as septicemia compound administered 1 hr post-infection twice for 1 day measured for 7 days; assay type: functional; details: read-out: PD50
[2] = molecular target: DNA gyrase subunit B (Staphylococcus aureus, UniProt P0A0K8); assay: Inhibition of Staphylococcus aureus Gyrase B ATPase activity by fluorescence analysis
DNA gyrase subunit B, sequence (P0A0K8 whole entry): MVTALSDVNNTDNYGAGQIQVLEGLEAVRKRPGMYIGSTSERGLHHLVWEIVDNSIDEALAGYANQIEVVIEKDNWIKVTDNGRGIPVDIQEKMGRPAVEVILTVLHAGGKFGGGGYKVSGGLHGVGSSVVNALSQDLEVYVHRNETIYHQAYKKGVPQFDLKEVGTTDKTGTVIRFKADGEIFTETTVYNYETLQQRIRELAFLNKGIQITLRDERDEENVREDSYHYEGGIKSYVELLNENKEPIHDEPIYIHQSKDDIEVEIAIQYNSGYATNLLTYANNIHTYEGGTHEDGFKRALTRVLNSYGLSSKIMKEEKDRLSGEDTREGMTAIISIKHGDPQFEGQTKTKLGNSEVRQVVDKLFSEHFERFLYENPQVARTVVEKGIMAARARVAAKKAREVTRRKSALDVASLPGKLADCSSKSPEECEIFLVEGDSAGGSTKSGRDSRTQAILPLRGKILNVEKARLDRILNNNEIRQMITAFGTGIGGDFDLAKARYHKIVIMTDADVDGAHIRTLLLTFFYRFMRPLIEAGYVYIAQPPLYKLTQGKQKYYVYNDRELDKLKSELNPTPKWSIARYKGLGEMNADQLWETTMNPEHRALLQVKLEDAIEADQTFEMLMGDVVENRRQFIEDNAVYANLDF

[3] = Inhibition of Staphylococcus aureus topoisomerase 4 by fluorescence analysis
[4] = tested on: Staphylococcus aureus; assay: Antibacterial activity against methicillin-sensitive Staphylococcus aureus 42 for 18 to 20 hrs by broth microdilution method; assay type: functional
[5] = tested on: Staphylococcus aureus; assay: Antibacterial activity against methicillin-resistant Staphylococcus aureus 1118 for 18 to 20 hrs by broth microdilution method; assay type: functional
[6] = tested on: Staphylococcus aureus; assay: Antibacterial activity against methicillin and ciprofloxacin-resistant Staphylococcus aureus 1721 for 18 to 20 hrs by broth microdilution method; assay type: functional
[7] = tested on: Streptococcus pneumoniae; assay: Antibacterial activity against Streptococcus pneumoniae for 18 to 24 hrs by broth microdilution method; assay type: functional
[8] = tested on: Enterococcus faecium; assay: Antibacterial activity against Enterococcus faecium for 18 to 20 hrs by broth microdilution method; assay type: functional
[9] = tested on: Enterococcus faecalis; assay: Antibacterial activity against Enterococcus faecalis for 18 to 20 hrs by broth microdilution method; assay type: functional
[10] = tested on: Streptococcus pneumoniae; assay: Antibacterial activity against Streptococcus pneumoniae 402 infected in sc dosed mouse assessed as reduction in 2 log CFU in lung compound administered as BID for 1 day measured 24 hrs after last dose; assay type: functional
[11] = tested on: Streptococcus pneumoniae; assay: Antibacterial activity against Streptococcus pneumoniae 402 infected in sc dosed mouse assessed as reduction in 3 log CFU in lung compound administered as BID for 1 day measured 24 hrs after last dose; assay type: functional
[12] = tested on: Mus musculus; assay: Dose-normalized AUC in mouse at 2 mg/kg, iv by LC-MS/MS analysis; assay type: ADME, organism-based; details: in vivo
[13] = Volume of distribution at steady state in mouse at 2 mg/kg, iv by LC-MS/MS analysis; assay type: ADME, organism-based; details: in vivo, read-out: Vdss
[14] = Half-life in mouse at 2 mg/kg, iv by LC-MS/MS analysis; assay type: ADME, organism-based; details: in vivo
[15] = Clearance in mouse at 2 mg/kg, iv by LC-MS/MS analysis; assay type: ADME, organism-based; details: in vivo
[16] = Log D of compound at pH 7.4; details: buffer

SMILES	ED50 [1]	IC50 [2]	IC50 [3]	MIC [4]	MIC [5]	MIC [6]	MIC [7]	MIC [8]	MIC [9]	ED [10]	ED [11]	AUC/dose [12]	Vd [13]	half-life [14]	clearance [15]	logD [16]
CCCc1cccc2c(-c3cnc(-c4ccc(C(=O)O)nc4)s3)n[nH]c12	1 mg/kg	0.01 µM	0.056 µM	0.06 mg/L (≈ 0.165 µM)	0.06 mg/L (≈ 0.165 µM)	0.06 mg/L (≈ 0.165 µM)	0.06 mg/L (≈ 0.165 µM)	0.06 mg/L (≈ 0.165 µM)	0.03 mg/L (≈ 0.0823 µM)	>25 mg/kg	>25 mg/kg	0.159 µg·h/mL/mg/kg	3.47 L/kg	2.1 h	6.3 L/h/kg	1.7
CCCc1cccc2c(-c3cnc(-c4cnc(C(=O)O)c(OC)c4)s3)n[nH]c12	–	0.014 µM	0.115 µM	1 mg/L (≈ 2.54 µM)	1 mg/L (≈ 2.54 µM)	> 8 mg/L	1 mg/L (≈ 2.54 µM)	4 mg/L (≈ 10.1 µM)	2 mg/L (≈ 5.07 µM)	–	–	–	–	–	–	–
C=CCc1cccc2c(-c3cnc(-c4ccc(C(=O)O)nc4)s3)n[nH]c12	–	0.009 µM	–	0.03 mg/L (≈ 0.0828 µM)	0.03 mg/L (≈ 0.0828 µM)	0.06 mg/L (≈ 0.166 µM)	0.25 mg/L (≈ 0.69 µM)	0.125 mg/L (≈ 0.345 µM)	0.125 mg/L (≈ 0.345 µM)	–	–	–	–	–	–	–
CCCc1cccc2c(-c3cnc(-c4ccc(CC(=O)O)nc4)s3)n[nH]c12	–	0.025 µM	0.434 µM	0.25 mg/L (≈ 0.661 µM)	0.25 mg/L (≈ 0.661 µM)	0.25 mg/L (≈ 0.661 µM)	0.5 mg/L (≈ 1.32 µM)	4 mg/L (≈ 10.6 µM)	0.5 mg/L (≈ 1.32 µM)	–	–	–	–	–	–	–
CCCn1c(=O)ccc2c(-c3cnc(-c4ccc(C(=O)O)nc4)s3)n[nH]c21	–	< 0.008 µM	0.056 µM	> 32 mg/L	–	–	0.06 mg/L (≈ 0.157 µM)	–	–	–	–	–	–	–	–	0.9
CCCc1cccc2c(-c3cnc(-c4cnc(C(=O)O)cc4C)s3)n[nH]c12	–	0.012 µM	0.06 µM	0.02 mg/L (≈ 0.0528 µM)	0.02 mg/L (≈ 0.0528 µM)	0.03 mg/L (≈ 0.0793 µM)	0.125 mg/L (≈ 0.33 µM)	0.013 mg/L (≈ 0.0344 µM)	0.06 mg/L (≈ 0.159 µM)	–	–	–	–	–	–	–
CCCc1cccc2c(-c3cnc(-c4ccc(C(=O)O)c(=O)[nH]4)s3)n[nH]c12	–	0.168 µM	–	> 8 mg/L	> 8 mg/L	> 8 mg/L	> 8 mg/L	> 8 mg/L	> 8 mg/L	–	–	–	–	–	–	–
CCCOc1nccc2c(-c3cnc(-c4cnc(C(=O)O)cc4C)s3)n[nH]c12	–	0.052 µM	–	8 mg/L (≈ 20.2 µM)	8 mg/L (≈ 20.2 µM)	8 mg/L (≈ 20.2 µM)	0.125 mg/L (≈ 0.316 µM)	8 mg/L (≈ 20.2 µM)	4 mg/L (≈ 10.1 µM)	–	–	–	–	–	–	–
CCCc1c(O)ccc2c(-c3cnc(-c4cnc(C(=O)O)cc4C)s3)n[nH]c12	–	0.008 µM	–	0.125 mg/L (≈ 0.317 µM)	0.125 mg/L (≈ 0.317 µM)	0.125 mg/L (≈ 0.317 µM)	0.06 mg/L (≈ 0.152 µM)	0.25 mg/L (≈ 0.634 µM)	0.06 mg/L (≈ 0.152 µM)	–	–	–	–	–	–	–
O=C(O)c1ccc(-c2ncc(-c3n[nH]c4c(CC5CC5)cccc34)s2)cn1	–	0.013 µM	–	0.05 mg/L (≈ 0.133 µM)	0.05 mg/L (≈ 0.133 µM)	0.1 mg/L (≈ 0.266 µM)	0.5 mg/L (≈ 1.33 µM)	4 mg/L (≈ 10.6 µM)	0.125 mg/L (≈ 0.332 µM)	–	–	–	–	–	–	–
CCCOc1nccc2c(-c3cnc(-c4ccc(COP(=O)([O-])[O-])nc4)s3)n[nH]c12.[Na+].[Na+]	–	< 0.008 µM	–	8 mg/L	8 mg/L	> 8 mg/L	1 mg/L	8 mg/L	> 8 mg/L	–	–	–	–	–	–	–
CCCc1c(O)ccc2c(-c3cnc(-c4ccc(C(=O)O)c(F)c4)s3)n[nH]c12	–	0.011 µM	–	0.125 mg/L (≈ 0.315 µM)	0.25 mg/L (≈ 0.629 µM)	0.25 mg/L (≈ 0.629 µM)	0.06 mg/L (≈ 0.151 µM)	0.02 mg/L (≈ 0.0503 µM)	0.02 mg/L (≈ 0.0503 µM)	–	–	–	–	–	–	–
CCCc1cccc2c(-c3cnc(-c4ccc(C(=O)O)cn4)s3)n[nH]c12	–	0.049 µM	9.9 µM	8 mg/L (≈ 22 µM)	> 8 mg/L	> 8 mg/L	8 mg/L (≈ 22 µM)	4 mg/L (≈ 11 µM)	8 mg/L (≈ 22 µM)	–	–	–	–	–	–	–
CCCc1cccc2c(-c3cnc(-c4ccc(C(=O)O)c(F)c4)s3)n[nH]c12	–	< 0.008 µM	1.3 µM	0.125 mg/L (≈ 0.328 µM)	0.125 mg/L (≈ 0.328 µM)	0.125 mg/L (≈ 0.328 µM)	0.25 mg/L (≈ 0.655 µM)	0.06 mg/L (≈ 0.157 µM)	0.06 mg/L (≈ 0.157 µM)	63 mg/kg	97.6 mg/kg	0.397 µg·h/mL/mg/kg	1.7 L/kg	2 h	2.52 L/h/kg	–
COc1c(N2C[C@@H]3CCCN[C@@H]3C2)c(F)cc2c(=O)c(C(=O)O)cn(C3CC3)c12 [MOXIFLOXACIN]	–	–	–	–	–	–	0.06 mg/L (≈ 0.149 µM)	–	–	28.6 mg/kg	50.8 mg/kg	–	–	–	–	–
CO[C@@H]1[C@@H](OC(N)=O)[C@@H](O)[C@H](Oc2ccc3c(O)c(NC(=O)c4ccc(O)c(CC=C(C)C)c4)c(=O)oc3c2C)OC1(C)C [NOVOBIOCIN]	10 mg/kg	–	–	–	0.125 mg/L (≈ 0.204 µM)	–	2 mg/L (≈ 3.26 µM)	–	–	>100 mg/kg	>100 mg/kg	–	–	–	–	–

Source: ChEMBL document CHEMBL3739399, “Discovery of Indazole Derivatives as a Novel Class of Bacterial Gyrase B Inhibitors” (ACS Med Chem Lett, 2015)
